Structures can show the parent of a compound that is named as a salt.
Columns and labels:
[1] = tested on: protein extravasation in the dura from stimulation of the trigeminal ganglion; details: iv
[2] = tested on: cephalic vascular smooth muscle; details: cited from earlier work
[3] = in vivo; cited from earlier work
neurogenic inflammation = details: in vivo; cited from earlier work
5-HT1F receptor = target: T1, 5-HT1F receptor (Homo sapiens, UniProt P30939); experiment: biochemical; details: Table I; displacement of 4.5-5.5 nM [3H]5-HT, 37° C., 30 minutes; read-out: 5-HT1F BINDING Ki
T1 sequence (P30939 1-366): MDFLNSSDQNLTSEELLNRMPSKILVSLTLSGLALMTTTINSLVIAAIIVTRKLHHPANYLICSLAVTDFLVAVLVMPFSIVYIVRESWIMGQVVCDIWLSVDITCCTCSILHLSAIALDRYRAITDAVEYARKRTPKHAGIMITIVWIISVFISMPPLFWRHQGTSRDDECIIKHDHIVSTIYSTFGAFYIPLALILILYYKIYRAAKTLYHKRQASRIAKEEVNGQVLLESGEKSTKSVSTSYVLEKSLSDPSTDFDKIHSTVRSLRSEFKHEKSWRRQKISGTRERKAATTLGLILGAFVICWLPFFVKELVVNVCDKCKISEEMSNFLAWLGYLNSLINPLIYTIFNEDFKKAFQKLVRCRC

SMILES | Ki (5-HT1F receptor) | other results
CNS(=O)(=O)Cc1ccc2[nH]cc(CCN(C)C)c2c1.O=C(O)CCC(=O)O [Compound I, 3-[2-(dimethylamino)ethyl]-N-methyl-1H-indole-5-methanesulfonamide butane-1,4-dioate (1:1)] |  | Inhibition of Protein Extravasation, i.v. ID50 [1]: 2.6e-08 nmol/kg; contraction of cephalic vascular smooth muscle [2]: contract cephalic vascular smooth muscle; effectiveness in the treatment of migraine [3]: effective in the treatment of migraine; block of neurogenic inflammation (neurogenic inflammation): blocked
CCN(CC)C1CCc2cccc(Cl)c2C1.Cl (stereo not drawn) [Compound IV, 8-chloro-2-diethylamino-1,2,3,4-tetrahydronaphthalene hydrochloride] |  | Inhibition of Protein Extravasation, i.v. ID50 [1]: 1.2e-07 nmol/kg
Brc1ccc2[nH]cc(C3CCN(CCc4cnn(C5CCCCC5)c4)CC3)c2c1 [Example 19] | 49.4 nM | 
CCCn1cc(CCN2CCC(c3c[nH]c4ccc(Br)cc34)CC2)cn1 [Example 15, 5-bromo-3-<1-<2-<1-propyl-1H-pyrazol-4-yl>ethyl>-4-piperidinyl>-1H-indoleoxalate] | 6.6 nM | 
c1ccc2c(C3CCN(CCc4cnn(C5CCCCC5)c4)CC3)c[nH]c2c1 [Example 16, 3-<1-<2-<1-cyclohexyl-1H-pyrazol-4-yl>ethyl>-4-piperidinyl>-1H-indoleoxalate] | 43.8 nM | 

Second part, led by results:

Ki (5-HT1F receptor) | SMILES | other results
5.5 nM | Fc1ccc2[nH]cc(C3CCN(CCc4cnn(-c5ccccc5)c4)CC3)c2c1 [Example 24, 5-fluoro-3-<1-<2-<1-phenyl-1H-pyrazol-4-yl>ethyl>-4-piperidinyl>-1H-indoleoxalate] | 
11.5 nM | Fc1ccc(-n2cc(CCN3CCC(c4c[nH]c5ccc(Cl)cc45)CC3)cn2)cc1 [Example 31, 5-chloro-3-<1-<2-<1-(4-fluorophenyl)-1H-pyrazol-4-yl>ethyl>-4-piperidinyl>- 1H-indole oxalate] | 
1.4 nM | Cn1cc(CCN2CCC(c3c[nH]c4ccc(O)cc34)CC2)cn1 [Example 49, 5-hydroxy-3-<1-<2-<1-methyl-1H-pyrazol-4-yl>ethyl>-4-piperidinyl>-1H-indoleoxalate] | 
5.3 nM | Fc1ccc2[nH]cc(C3CCN(CCc4ccncc4)CC3)c2c1 [Example 46, 5-fluoro-3-<1-<2-<pyridin-4-yl>ethyl>-4-piperidinyl>-1H-indoledihydrochloride] | 
